# Assay results as given in PubChem BioAssay (NCI).
#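 Each compound was tested at five concentrations against cells in 96-well plates for 48 hours. The concentration for 50% growth inhibition is given as GI50. TGI denotes the concentration required for complete inhibition of growth.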
# Legend:
# Assay in all cases: NCI-60 cell line screen, 48 h
# ACHN renal = system: ACHN renal
# COLO 205 colon = system: COLO 205 colon
# HCT-15 colon = system: HCT-15 colon
# HT29 colon = system: HT29 colon
# OVCAR-3 ovarian = system: OVCAR-3 ovarian
# SF-295 CNS = system: SF-295 CNS
# SN12C renal = system: SN12C renal
# SNB-75 CNS = system: SNB-75 CNS
# U251 CNS = system: U251 CNS
# SR leukemia = system: SR leukemia
SMILES,TGI (ACHN renal),TGI (COLO 205 colon),TGI (HCT-15 colon),TGI (HT29 colon),TGI (OVCAR-3 ovarian),TGI (SF-295 CNS),TGI (SN12C renal),TGI (SNB-75 CNS),TGI (U251 CNS),GI50 (ACHN renal),GI50 (COLO 205 colon),GI50 (HCT-15 colon),GI50 (HT29 colon),GI50 (OVCAR-3 ovarian),GI50 (SF-295 CNS),GI50 (SN12C renal),GI50 (SNB-75 CNS),GI50 (U251 CNS),TGI (SR leukemia),GI50 (SR leukemia)
NC1C[C@H](n2cc(/C=C/Br)c(=O)[nH]c2=O)C[C@@H]1CO (some centres undefined),> 100 µM,> 100 µM,> 100 µM,> 100 µM,> 100 µM,> 100 µM,> 100 µM,> 100 µM,> 100 µM,–,–,–,–,–,–,–,–,–,–,–
COc1ccc(-c2nn3c(-c4cc(F)c(Cl)cc4Cl)nnc3s2)cc1,> 100 µM,36.8 µM,> 100 µM,44.3 µM,66.7 µM,65.3 µM,> 100 µM,51.5 µM,74.5 µM,37.8 µM,16.5 µM,18.1 µM,18.5 µM,20.4 µM,16.2 µM,43.4 µM,17.2 µM,24.6 µM,–,–
COc1cc(OC(C)=O)cc2c(OC(C)=O)ccc(OC(C)=O)c12,> 100 µM,–,> 100 µM,> 100 µM,> 100 µM,> 100 µM,> 100 µM,–,> 100 µM,–,–,–,–,–,–,–,–,–,> 100 µM,–
Nn1c(NNC(=O)C(=O)Nc2cc(Cl)c(Cl)cc2Cl)n[nH]c1=S,> 100 µM,> 100 µM,> 100 µM,> 100 µM,> 100 µM,> 100 µM,> 100 µM,> 100 µM,> 100 µM,–,–,–,–,–,–,–,–,–,–,–
CCCNC1=C(C(=O)OCC)C(=O)CO1,> 100 µM,–,> 100 µM,> 100 µM,> 100 µM,> 100 µM,> 100 µM,> 100 µM,> 100 µM,–,–,–,–,–,–,–,–,–,> 100 µM,–
CCCCCCCCN=C(N)c1ccc(N2CCN(c3ccc(C(N)=NCCCCCCCC)cc3)CC2)cc1,12.7 µM,19.2 µM,7.2 µM,13.6 µM,3.2 µM,2.79 µM,3.05 µM,–,6.33 µM,2.37 µM,1.49 µM,1.79 µM,1.61 µM,0.931 µM,1.1 µM,1.09 µM,–,1.45 µM,2.26 µM,0.97 µM
COc1ccc(-c2nc3sc4c(c3c(=O)[nH]2)CCCCCC4)cc1,> 33.2 µM,> 33.2 µM,> 33.2 µM,–,> 33.2 µM,> 33.2 µM,> 33.2 µM,16.5 µM,–,2.3 µM,2.37 µM,0.655 µM,–,1.91 µM,0.989 µM,> 33.2 µM,2.2 µM,–,> 33.2 µM,0.717 µM
O=C(N/C(=C\c1ccc2c(c1)OCO2)c1nc2ccccc2[nH]1)c1ccccc1,> 100 µM,> 60.3 µM,> 100 µM,–,81.9 µM,> 100 µM,> 84.1 µM,> 74 µM,> 100 µM,–,–,–,–,–,–,–,–,–,72.3 µM,–
CC1=Nc2ccccc2S/C1=C(/C)NNC(=O)C(N)=O,> 100 µM,> 100 µM,> 100 µM,> 100 µM,> 100 µM,> 100 µM,> 100 µM,> 100 µM,> 100 µM,–,–,–,–,–,–,–,–,–,–,–
O=C(COc1ccc2c(=O)cc(-c3ccccc3)oc2c1)N1CCN(c2ccccc2)CC1,> 100 µM,> 100 µM,> 100 µM,–,> 100 µM,> 100 µM,> 100 µM,> 100 µM,> 100 µM,–,–,–,–,–,–,–,–,–,–,–
OC(c1cc(-c2ccccc2)nc2ccc(Cl)cc12)C1CCCCN1 (centres undefined),3.21 µM,–,3.53 µM,6.57 µM,5.15 µM,3.55 µM,10.6 µM,5.74 µM,–,1.64 µM,–,1.84 µM,2.96 µM,2.15 µM,1.9 µM,3.14 µM,1.83 µM,–,5.44 µM,1.88 µM
Nc1ccccc1C#C/C=C\C#Cc1cccs1,58.3 µM,78.3 µM,43.7 µM,57.3 µM,24.8 µM,46.1 µM,16.7 µM,61.9 µM,27.5 µM,15.9 µM,18.2 µM,9.45 µM,20.3 µM,4.85 µM,11.3 µM,4.62 µM,16.8 µM,8.34 µM,–,–
Cc1cc(N(CCC#N)CCC#N)ccc1N=Nc1cccc(C(=O)O)c1,> 100 µM,> 100 µM,> 100 µM,> 100 µM,> 100 µM,> 100 µM,> 100 µM,> 100 µM,> 100 µM,–,–,–,–,–,–,–,–,–,–,–
CN(C)CCCNC(CC#N)CCC#N (centres undefined),> 10 µM,> 10 µM,> 10 µM,> 10 µM,> 10 µM,> 10 µM,> 10 µM,> 10 µM,> 10 µM,–,–,–,–,–,–,–,–,–,–,–
CCOC(=O)COc1ccccc1/C=C1\CCC(CN(C)C)C1=O (centres undefined),26.9 µM,11.1 µM,9.86 µM,22.6 µM,20.6 µM,35.5 µM,14.1 µM,29.5 µM,14.8 µM,–,–,–,–,–,–,–,–,–,–,–
CCCCC(CC)CN=C(N)NC(N)=NCCCCCCN=C(N)NC(N)=NCC(CC)CCCC (centres undefined),7.74 µM,3.31 µM,16.5 µM,–,–,–,4.39 µM,–,–,2.85 µM,1.82 µM,2.98 µM,–,–,–,1.52 µM,–,–,–,–
CC1C=C(OC(=O)c2ccccc2)C(=O)C(n2cc(F)c(=O)[nH]c2=O)O1 (centres undefined),> 100 µM,> 100 µM,> 100 µM,> 100 µM,> 100 µM,> 100 µM,> 100 µM,> 100 µM,> 100 µM,–,–,–,–,–,–,–,–,–,–,–
O=C(CN1CCOCC1)Nc1nc(-c2ccc(Cl)cc2)cs1,79.6 µM,93 µM,> 100 µM,> 100 µM,76.9 µM,> 100 µM,> 100 µM,62.6 µM,> 100 µM,–,–,–,–,–,–,–,–,–,–,–
CC1SC2=NC3=C(c4ccccc4C3=O)C(c3ccc(F)cc3)N2C1=O (centres undefined),> 100 µM,> 100 µM,> 100 µM,> 100 µM,> 100 µM,> 100 µM,> 100 µM,> 100 µM,> 100 µM,–,–,–,–,–,–,–,–,–,–,–
